The results in this text go back to patent US12012411B2, “Viral replication inhibitors” (Katholieke Universiteit Leuven, priority 2011, dated 2024).

The test system of series [1] is DENV-2 NGC. Description: Antiviral activity against DENV-2 NGC in Vero-B cells (viral RNA load by RT-qPCR). In kind it is cell-based, Dengue virus. The conditions noted are these: Dengue virus, DENV2, Vero B, DENV-2 in Vero-B cells; inhibition of viral RNA replication by 50% (Table 3).
The test system of another series is YFV-17D. Put plainly: microbe, parasite or virus in culture. The conditions noted are these: Yellow fever virus, Vero B. In kind it is cell-based.
Series [2] concerns DENV-3 strain H87 prototype. Description: Antiviral activity against DENV-3 in Vero-B cells (viral RNA load by RT-qPCR). In kind it is cell-based, Dengue virus. The settings on record: Dengue virus, DENV3, Vero B.
Series [3] has as its system DENV-1 Djibouti strain D1/H/IMTSSA/98/606. Put plainly: Antiviral activity against DENV-1 in Vero-B cells (viral RNA load by RT-qPCR). The conditions noted are these: Dengue virus, DENV1, Vero B. In kind it is cell-based, Dengue virus.
The next series in a line: in vitro. The settings on record: African green monkey; for CC50 at 4 days: uninfected quiescent Vero-B cells.
Series [4] deals with DENV-2 NGC. Put plainly: Antiviral activity against DENV-2 NGC in A549 cells (viral RNA load by RT-qPCR). In kind it is cell-based. The settings on record: Dengue virus, DENV2; DENV-2 in A549 cells (Table 6).
Series [5] can be described thus: Cytotoxicity in A549 cells (MTS/PMS). In kind it is cell-based. The settings on record: human; A549 cells (Table 6). On the procedure: A similar protocol was used to assess cytotoxicity in A549 cells with the difference that cells were seeded at 2×10^4 cells/well.
Series [6] deals with DENV-4 strain Dak HD 34 460. Put plainly: Antiviral activity against DENV-4 in Vero-B cells (viral RNA load by RT-qPCR). In kind it is cell-based, Dengue virus. The settings on record: Dengue virus, DENV4, Vero B.
For series [7], the system named is uninfected quiescent Vero-B cells. Put plainly: Cytotoxic assay in uninfected quiescent Vero-B cells (MTS/PMS). The conditions noted are these: 4 days (Table 3).
The test system of another series is DENV-2 strain D2Y98P. Put plainly: Dengue mortality model in AG129 mice. In kind it is in vivo. The conditions noted are these: 60 mg/kg/day, sc, twice daily, 17 consecutive days; DENV-2 D2Y98P infected AG129 mice; p: 0.0017; FIG. 1.

As for `COc1cc(NC(C(=O)c2c(C)[nH]c3ccccc23)c2ccccc2)cc(OC)c1` (centres unmarked) [CPD-012], the half-maximal effective concentration (EC50) in the series on DENV-2 NGC [1] is 0.05 µM; with YFV-17D, < 0.5 µM; in series [2], < 0.5 µM; in series [3], 4.42 µM. The molecule also registered a CC50 in “in vitro” of 12 µM. The CC50 at 4 days in “in vitro” was 14 µM.
As for `COc1cc(NC(C(=O)c2c[nH]c3ccc(F)cc23)c2ccccc2)cc(OC)c1` (centres unmarked) [CPD-131], the EC50 in the series with DENV-2 NGC [1] was determined as 0.01 µM; in [2] it was 0.68 µM; with DENV-2 NGC [4], 0.008 µM; in [6] it was 4.77 µM; in series [3], 0.25 µM. In addition, in series [5], the CC50 at 4 days turned out to be 11 µM. The CC50 in [7] was 13 µM.
For the molecule `COc1cc(NC(C(=O)c2c[nH]c3ccccc23)c2cccnc2)cc(OC)c1` (centres unmarked) [CPD-236], the EC50 was 0.02 µM in the series on DENV-2 NGC [1]; 0.31 µM in series [2]; 0.019 µM in the series on DENV-2 NGC [4]; 2.45 µM in series [6]; 0.17 µM in series [3]. The same molecule yielded a CC50 at 4 days in series [5] of 65 µM. Also, in series [7], the CC50 was 69 µM.
For the molecule `COc1cncc(NC(C(=O)c2c[nH]c3cc(F)ccc23)c2ccc(OC)nc2)c1` (centres unmarked) [CPD-242], the “delay in virus-induced morbidity (day of euthanasia)” value with DENV-2 strain D2Y98P was “highly significant delay”. In addition, the EC50 in the series on DENV-2 NGC [1] was found to be 0.04 µM; in series [2] it was 0.57 µM; in the series with DENV-2 NGC [4] it was 0.01 µM; in [6], 7.87 µM; in [3], 0.4 µM. In addition, the CC50 at 4 days in series [5] came out at 47 µM; in “in vitro” it was 59 µM.
`COc1cc(NC(C(=O)c2c[nH]c3ccccc23)c2ccccc2)cc(OC)c1` (centres unmarked) [CPD-002]: the EC50 in the series on DENV-2 NGC [1] is 0.01 µM; in the series on YFV-17D, 2.81 µM; in [2], < 0.5 µM; in series [6] it was 27.2 µM; in series [3], 0.54 µM. The CC50 amounted to 16 µM in series [7] and 25 µM in “in vitro”.
For the molecule `COc1ccc(NC(C(=O)c2c[nH]c3ccccc23)c2ccccc2)cc1OC` (centres unmarked) [CPD-001], the EC50 is 0.08 µM with DENV-2 NGC [1]; 9.16 µM with YFV-17D; 29.4 µM in series [2]; 4.45 µM in [6]; 1.6 µM in series [3]. Moreover, the values for the CC50 (in series [7]; in the series “in vitro”) were 29 µM and 43 µM, respectively.
With `COc1cc(NC(C(=O)c2c[nH]c3cc(Cl)ccc23)c2ccccc2)cc(OC)c1` (centres unmarked) [CPD-013], the EC50 in the series with DENV-2 NGC [1] was 0.002 µM; in the series on YFV-17D it was 0.52 µM; in series [2], < 0.5 µM; in series [6], 1.81 µM; in [3], 0.09 µM. Besides, the CC50 in the series “in vitro” amounted to 11 µM. For the same molecule, in the series “in vitro”, the CC50 at 4 days worked out at 9 µM.
In the case of `COc1cccc(NC(C(=O)c2c[nH]c3ccccc23)c2cccnc2)c1` (centres unmarked) [CPD-019], the EC50 in the series with DENV-2 NGC [1] amounted to 0.14 µM; with YFV-17D it was 6.18 µM; in series [2], 2.18 µM; in series [6], 8.38 µM; in series [3], 0.67 µM. Further, the CC50 in series [7] was 71 µM; in “in vitro” it was 56 µM.
Take `COc1cc(NC(C(=O)c2c[nH]c3ccccc23)c2cc3ccccn3n2)cc(OC)c1` (centres unmarked) [CPD-293]: the EC50 was found to be 0.001 µM in the series with DENV-2 NGC [1]; 0.04 µM in series [2]; 0.003 µM with DENV-2 NGC [4]; 1.15 µM in [6]; 0.06 µM in [3]. Besides, the CC50 at 4 days in series [5] is > 117 µM; in “in vitro”, 65 µM.
For `COc1cccc(NC(C(=O)c2csc3ccccc23)c2ccccc2)c1` (centres unmarked) [CPD-193], the concentration giving a half-maximal response (EC50) in the series on DENV-2 NGC [1] was 0.72 µM; in the series on YFV-17D, < 0.5 µM; in series [2], 18.9 µM; in [6], 5.44 µM; in series [3] it was 23.7 µM. Moreover, the CC50 in “in vitro” is > 133 µM. In addition, the CC50 at 4 days in the series “in vitro” was > 133 µM.
Consider `COc1cc(CO)cc(NC(C(=O)c2c[nH]c3ccccc23)c2ccc(C)nc2)c1` (centres unmarked) [CPD-320], for which the EC50 with DENV-2 NGC [1] stood at 0.07 µM; in series [2], 1.17 µM; with DENV-2 NGC [4], 0.006 µM; in series [6] it was 9.44 µM; in [3], 0.96 µM. Besides, the CC50 at 4 days (in [5]; in the series “in vitro”) was > 124 µM throughout.
With `COc1cccc(NC(C(=O)c2c[nH]c3ccccc23)c2ccccc2)c1` (centres unmarked) [CPD-010], the EC50 with DENV-2 NGC [1] is 0.07 µM; in the series on YFV-17D it was < 0.6 µM; in series [2], 3.54 µM; in the series with DENV-2 NGC [4], 0.066 µM; in series [6], 5.43 µM; in [3], 1.29 µM. Besides, in [5], the CC50 at 4 days came to 16 µM. For the same molecule, the CC50 in [7] is 18 µM; in the series “in vitro”, 12 µM.
As to `COc1cccc(NC(C(=O)c2c[nH]c3ccccc23)c2nc3ccccc3o2)c1` (centres unmarked) [CPD-328], the EC50 came out at 0.01 µM in the series on DENV-2 NGC [1]; 0.13 µM in series [2]; 0.006 µM in the series with DENV-2 NGC [4]; 2.84 µM in [6]; 0.2 µM in series [3]. Also, the CC50 at 4 days in series [5] was 12 µM. The CC50 in series [7] is 13 µM.
On to `COc1cc(NC(C(=O)c2nn(C)c3ccccc23)c2ccc(F)cc2)cc(OC)c1` (centres unmarked) [CPD-340], for which the EC50 in the series with DENV-2 NGC [1] was 0.02 µM; in series [2], 0.24 µM; in the series on DENV-2 NGC [4], 0.027 µM; in series [6], 6.39 µM; in series [3], 0.18 µM. For the same molecule, the CC50 at 4 days (in series [5]; in “in vitro”) was > 119 µM throughout.
Take `COc1cc(NC(C(=O)c2c[nH]c3ccccc23)c2cc3ccccn3n2)cc(OCCO)c1` (centres unmarked) [CPD-336]: the EC50 in the series with DENV-2 NGC [1] was 0.01 µM; in series [2] it was 0.35 µM; in the series on DENV-2 NGC [4] it was 0.005 µM; in [6] it was 5.77 µM; in series [3] it was 0.26 µM. Besides, the CC50 at 4 days (in [5]; in “in vitro”) was > 123 µM in each case.
On to `COc1cc(NC(C(=O)c2c[nH]c3ccccc23)c2ccc(F)cc2)cc(OCCO)c1` (centres unmarked) [CPD-350], for which the EC50 came to 0.01 µM in the series on DENV-2 NGC [1], 0.28 µM in [2], 0.008 µM with DENV-2 NGC [4] and 3.11 µM in series [6]. Also, the CC50 at 4 days in series [5] amounted to 63 µM. The same molecule returned a CC50 in series [7] of 46 µM.
